Reference: patent US20050107289A1, “Anti-microbial peptides and compositions” (priority 2001, published 2005)
Like-named read-outs stand apart in the source and are kept apart here. Non-standard residues stand in square brackets, D forms with d. Residues, ends and D or L forms follow the SMILES beside them.

What was measured:
[1] = system: S. aureus (MRSA) ATCC 33591; assay type: cell-based, Staphylococcus aureus; conditions: Table 9
How it was run: (§1)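 MICs come from NCCLS-style (M7-A4) dilution testing, mostly microdilution, with an inoculum near 2.5×10^5 cfu/ml from 4000-fold-diluted overnight cultures. Peptide series were 2-fold steps spanning roughly 400–2 μg/ml, prepared in 9% aqueous sucrose with 5% DMSO.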

[2] = system: vancomycin-resistant Enterococus faecalis (VRE)(ATCC 51575); assay type: cell-based, Enterococcus faecalis; set-up: key to VRE (in vitro activity): peptide concentration in μg/ml (broth dilution assay); conditions: Table 9
How it was run: as §1

murine red blood cells = experiment: Red blood cell hemolysis; assay type: cell-based, mouse
How it was run: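 Hemolysis read as A560 of supernatant, scaled between saline (0%) and 1% Triton X-100 (100%) controls; peptides were serially diluted onto 5% murine red cells in saline plus 10% FBS and incubated 30 min at 37° C.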

[3] = media b: cation adjusted Meuller Hinton broth (MHBII)
[4] = media c: Brain Heart Infusion (BHI)
[5] = media a: anti-microbial media-3 (AM-3)

SMILES | MRSA (in vitro activity) [1, 3] | VRE (in vitro activity) [2, 4] | RBC Hemolysis (HD50) (murine red blood cells) | MRSA (in vitro activity) [1, 5] | VRE (in vitro activity) ([2]; media a: AM-3) | MRSA (in vitro activity) ([1]; media b: cation adjusted Meuller Hinton broth (MHBII), listed as [KSKLFLFL] (54))
CC(C)C[C@H]1NC(=O)[C@H](Cc2c[nH]c3ccccc23)NC(=O)[C@@H](CC(C)C)NC(=O)[C@H](CCCCN)NC(=O)[C@@H]([C@H](C)O)NC(=O)[C@H](CCCCN)NC(=O)[C@@H](CC(C)C)NC(=O)[C@H](Cc2c[nH]c3ccccc23)NC1=O [SEQ ID NO:66, [KTKLWLWL]] (cyclo(K[dT]K[dL]W[dL]W[dL])) | 18 | 18 | 150 | – | – | –
CC(C)C[C@H]1NC(=O)[C@H](CCCCN)NC(=O)[C@@H](Cc2c[nH]cn2)NC(=O)[C@H](CCCCN)NC(=O)[C@@H](CC(C)C)NC(=O)[C@H](Cc2ccccc2)NC(=O)[C@@H](CC(C)C)NC(=O)[C@H](Cc2ccccc2)NC1=O [SEQ ID NO:48, [KHKLFLFL]] (cyclo(K[dH]K[dL]F[dL]F[dL])) | 7 | 13 | >220 | – | – | –
CC(C)C[C@H]1NC(=O)[C@H](CCCCN)NC(=O)[C@@H](CO)NC(=O)[C@H](CCCCN)NC(=O)[C@@H](CC(C)C)NC(=O)[C@H](Cc2c[nH]cn2)NC(=O)[C@@H](CC(C)C)NC(=O)[C@H](Cc2c[nH]cn2)NC1=O [SEQ ID NO:103, [KSKLHLHL]] (cyclo(K[dS]K[dL]H[dL]H[dL])) | >320 | >320 | >320 | – | – | –
CC(C)[C@H]1NC(=O)[C@H](Cc2ccc(O)cc2)NC(=O)[C@@H](CO)NC(=O)[C@H](CCCCN)NC(=O)[C@@H](CO)NC(=O)[C@H](Cc2c[nH]c3ccccc23)NC1=O [SEQ ID NO:127, [KSYVWS]] (cyclo(K[dS]Y[dV]W[dS])) | >200 | >200 | >200 | – | – | –
CC(C)C[C@@H]1NC(=O)[C@@H](Cc2c[nH]c3ccccc23)NC(=O)[C@H](CCCCN)NC(=O)[C@@H](CCC(=O)O)NC(=O)[C@H](CCCCN)NC(=O)[C@@H](Cc2c[nH]c3ccccc23)NC1=O [SEQ ID NO:117, [KEKWLW]] (cyclo(K[dE]K[dW]L[dW])) | – | – | >121 | 101 | 91 | –
CC(C)C[C@H]1NC(=O)[C@H](CCCCN)NC(=O)[C@@H](CO)NC(=O)[C@H](CCCCN)NC(=O)[C@@H](CC(C)C)NC(=O)[C@H](Cc2ccccc2)NC(=O)[C@@H](CC(C)C)NC(=O)[C@H](Cc2ccccc2)NC1=O [SEQ ID NO:54, [KSKLFLFL]] (cyclo(F[dL]F[dL]K[dS]K[dL])) | – | 200 | >200 | – | – | 50
CC(C)C[C@H]1NC(=O)[C@H](Cc2c[nH]c3ccccc23)NC(=O)[C@@H](Cc2ccccc2)NC(=O)[C@H](CCCCN)NC(=O)[C@@H](Cc2ccccc2)NC(=O)[C@H](CCCCN)NC(=O)[C@@H](CC(C)C)NC(=O)[C@H](Cc2c[nH]c3ccccc23)NC1=O [SEQ ID NO:100, [KFWLWLKF]] (cyclo(K[dF]W[dL]W[dL]K[dF])) | – | – | >78 | 11 | 10 | –
CC(C)C[C@H]1NC(=O)[C@H](Cc2c[nH]c3ccccc23)NC(=O)[C@@H](CCCCN)NC(=O)[C@H](CO)NC(=O)[C@@H](CO)NC(=O)[C@H](CCCCN)NC(=O)[C@@H](CC(C)C)NC(=O)[C@H](Cc2c[nH]c3ccccc23)NC1=O [SEQ ID NO:82, [KSSKWLWL]] (cyclo(K[dS]S[dK]W[dL]W[dL])) | 27 | 27 | >220 | – | – | –
CC(C)C[C@H]1NC(=O)[C@H](CCCCN)NC(=O)[C@@H](CC(C)C)NC(=O)[C@H](CCCCN)NC(=O)[C@@H](CC(C)C)NC(=O)[C@H](CCCCN)NC(=O)[C@@H](CC(C)C)NC(=O)[C@H](CCCCN)NC1=O [SEQ ID NO:4, KLKLKLKL] (cyclo(K[dL]K[dL]K[dL]K[dL])) | >200 | >200 | >200 | – | – | –
